The numbers were not newly measured in patent US7964627B2, “Amino arylsulfonamide compounds and their use as 5-HT6 ligands” (Suven Life Sciences Limited, priority 2007, dated 2011), which cites them from elsewhere.

The subject of this data set is animal models for schizophrenia. As to conditions: Pouzet et al. 2002; cited from earlier work.

Each structure is given as a SMILES string.

Consider `COc1ccc(NS(=O)(=O)c2sc3ccc(Cl)cc3c2C)cc1N1CCNCC1` [SB-271046, 5-Chloro-N-(4-methoxy-3-piperazin-1-ylphenyl)-3-methyl-2-benzothiophenesulfonamide], for which the “Activity in animal tests related to positive or negative symptoms of schizophrenia” value was “inactive”.
